According to PubChem BioAssay AID280 (DTP/NCI, 2004):
“And” between values parts separate entries of the source, which are not always exact repeats. Equal entries are not always repeated. Inconclusive results and toxic doses are left out.

System: nude mice, LOX melanoma ip, survival T/C
Experiment: NCI In Vivo Anticancer Drug Screen. Data for tumor model Human Amelanotic Melanoma (LOX) (intraperitoneal) in NU/NU BALB/C (nude) mice
Settings: endpoint: median survival time, higher = longer survival
Experimental: The antitumor activity of compounds was measured in mice bearing transplantable tumors. Survival or tumor size were measured and the results are expressed as the measurement made in the treated group (T) divided by the measurement made in the vehicle treated control group (C). The tumor model used in this assay is Human Amelanotic Melanoma (LOX) (intraperitoneal) in NU/NU BALB/C (nude) mice

[1] = dose: 37.5 mg/kg/injection, schedule: Q04DX003 (ip), vehicle: saline with Tween-80
[2] = dose: 75.0 mg/kg/injection, schedule: Q04DX003 (ip), vehicle: saline with Tween-80
[3] = dose: 300.0 mg/kg/injection, schedule: Q04DX003 (ip), vehicle: saline with Tween-80
[4] = dose: 25.0 mg/kg/injection, schedule: Q04DX003 (ip), vehicle: saline with Tween-80
[5] = dose: 50.0 mg/kg/injection, schedule: Q04DX003 (ip), vehicle: saline with Tween-80
[6] = dose: 100.0 mg/kg/injection, schedule: Q04DX003 (ip), vehicle: saline with Tween-80
[7] = dose: 150.0 mg/kg/injection, schedule: Q04DX003 (ip), vehicle: saline with Tween-80
[8] = dose: 200.0 mg/kg/injection, schedule: Q04DX003 (ip), vehicle: saline with Tween-80
[9] = dose: 400.0 mg/kg/injection, schedule: Q04DX003 (ip), vehicle: saline with Tween-80

`CN=NN(C)C(=O)NC` was tested, and the T/C (dose: 25.0 mg/kg/injection, schedule: Q04DX003 (ip), vehicle: saline) was 154 % of control, the T/C (dose: 50.0 mg/kg/injection, schedule: Q04DX003 (ip), vehicle: saline) was 188 % of control and the T/C (dose: 100.0 mg/kg/injection, schedule: Q04DX003 (ip), vehicle: saline) was 230 % of control.

In the case of `O=C1C=CC2OC(c3ccccc3)C(O)C2O1` (stereo unspecified), the T/C (dose: 12.5 mg/kg/injection, schedule: Q04DX003 (ip), vehicle: DMSO) is reported as 105 % of control, the T/C (dose: 25.0 mg/kg/injection, schedule: Q04DX003 (ip), vehicle: DMSO) is reported as 103 % of control and the T/C (dose: 50.0 mg/kg/injection, schedule: Q04DX003 (ip), vehicle: DMSO) is reported as 103 % of control.

`CCCCCC[Se][Se]CCCCCC` was tested, and the T/C (dose: 37.5 mg/kg/injection, schedule: Q04DX003 (ip), vehicle: Klucel (hydroxypropylcellulose) (HPC)) was 98 % of control, the T/C (dose: 75.0 mg/kg/injection, schedule: Q04DX003 (ip), vehicle: Klucel (hydroxypropylcellulose) (HPC)) was 96 % of control and the T/C (dose: 150.0 mg/kg/injection, schedule: Q04DX003 (ip), vehicle: Klucel (hydroxypropylcellulose) (HPC)) was 93 % of control. For the same compound, the T/C (dose: 300.0 mg/kg/injection, schedule: Q04DX003 (ip), vehicle: Klucel (hydroxypropylcellulose) (HPC)) was 105 % of control.

With `CN=C(NC)c1ccc(NC(=O)/C=C\c2ccc(/C=C/C(=O)Nc3ccc(C(=NC)NC)cc3)cc2)cc1` the T/C (dose: 0.78 mg/kg/injection, schedule: Q04DX003 (ip), vehicle: Klucel (hydroxypropylcellulose) (HPC)) was 104 % of control, the T/C (dose: 1.56 mg/kg/injection, schedule: Q04DX003 (ip), vehicle: Klucel (hydroxypropylcellulose) (HPC)) was 109 % of control and the T/C (dose: 2.0 mg/kg/injection, schedule: Q04DX003 (ip), vehicle: Klucel (hydroxypropylcellulose) (HPC)) was 90 % of control. The T/C (dose: 2.25 mg/kg/injection, schedule: Q04DX003 (ip), vehicle: Klucel (hydroxypropylcellulose) (HPC)) was 101 % of control, the T/C (dose: 3.75 mg/kg/injection, schedule: Q04DX003 (ip), vehicle: Klucel (hydroxypropylcellulose) (HPC)) was 87 % of control and the T/C (dose: 4.0 mg/kg/injection, schedule: Q04DX003 (ip), vehicle: Klucel (hydroxypropylcellulose) (HPC)) was 105 % of control. The T/C (dose: 6.0 mg/kg/injection, schedule: Q04DX003 (ip), vehicle: Klucel (hydroxypropylcellulose) (HPC)) was 111 % of control, the T/C (dose: 10.0 mg/kg/injection, schedule: Q04DX003 (ip), vehicle: Klucel (hydroxypropylcellulose) (HPC)) was 105 % of control and the T/C (dose: 11.0 mg/kg/injection, schedule: Q04DX003 (ip), vehicle: Klucel (hydroxypropylcellulose) (HPC)) was 98 % of control. The T/C (dose: 12.5 mg/kg/injection, schedule: Q04DX003 (ip), vehicle: Klucel (hydroxypropylcellulose) (HPC)) was 109 % of control, the T/C (dose: 17.0 mg/kg/injection, schedule: Q04DX003 (ip), vehicle: Klucel (hydroxypropylcellulose) (HPC)) was 90 % of control and the T/C (dose: 18.0 mg/kg/injection, schedule: Q04DX003 (ip), vehicle: Klucel (hydroxypropylcellulose) (HPC)) was 95 % of control.

`c1ccc(OCC2CO2)c(OCC2CO2)c1` (stereo unspecified) was tested, and the T/C [1] was 118 % of control, the T/C [2] was 109 % of control and the T/C [3] was 265 % of control.

With `COc1cc2c(c(OC)c1OC)-c1ccc(SC)c(=O)cc1[C@@H](NC(C)=O)CC2` the T/C (dose: 0.25 mg/kg/injection, schedule: Q04DX003 (ip), vehicle: Klucel (hydroxypropylcellulose) (HPC)) was 163 % of control, the T/C (dose: 0.5 mg/kg/injection, schedule: Q04DX003 (ip), vehicle: Klucel (hydroxypropylcellulose) (HPC)) was 172 % of control and 196 % of control and the T/C (dose: 0.82 mg/kg/injection, schedule: Q04DX003 (ip), vehicle: Klucel (hydroxypropylcellulose) (HPC)) was 173 % of control. The T/C (dose: 1.38 mg/kg/injection, schedule: Q04DX003 (ip), vehicle: Klucel (hydroxypropylcellulose) (HPC)) was 193 % of control.

With `O=C(NNC(=O)c1cccc(C(=O)NNC(=O)c2ccc(Cl)c(Cl)c2)n1)c1ccc(Cl)c(Cl)c1` the T/C [4] was 103 % of control, the T/C [5] was 119 % of control and the T/C [2] was 104 % of control. The T/C [6] was 119 % of control, the T/C [7] was 110 % of control and the T/C [8] was 122 % of control. The T/C [3] was 204 % of control, the T/C [9] was 116 % of control and the T/C (dose: 600.0 mg/kg/injection, schedule: Q04DX003 (ip), vehicle: saline with Tween-80) was 167 % of control. The T/C (dose: 1200.0 mg/kg/injection, schedule: Q04DX003 (ip), vehicle: saline with Tween-80) was 164 % of control.

`CCN(CC)CC(=O)O[C@]1(CC)C(=O)OCc2c1cc1n(c2=O)Cc2cc3ccccc3nc2-1` was tested, and the T/C (dose: 18.75 mg/kg/injection, schedule: Q04DX003 (ip), vehicle: water) was 239 % of control.

For `C/C(=N\NC(=S)N1CC2CCC(CC2)C1)c1nccs1`, the T/C (dose: 12.5 mg/kg/injection, schedule: Q04DX003 (ip), vehicle: saline with Tween-80) was 101 % of control, the T/C [4] was 107 % of control and the T/C [5] was 118 % of control. For the same compound, the T/C [6] was 118 % of control.

`CO[C@@]12[C@H](COC(N)=O)C3=C(C(=O)C(C)=C(N)C3=O)N1C[C@@H]1N[C@@H]12` was tested, and the T/C (dose: 1.34 mg/kg/injection, schedule: Q04DX003 (ip), vehicle: saline) was 116 % of control, the T/C (dose: 1.34 mg/kg/injection, schedule: Q04DX003 (iv), vehicle: saline) was 119 % of control and the T/C (dose: 2.0 mg/kg/injection, schedule: Q04DX003 (ip), vehicle: saline) was 111 % of control. For the same compound, the T/C (dose: 2.0 mg/kg/injection, schedule: Q04DX003 (iv), vehicle: saline) was 166 % of control, the T/C (dose: 3.0 mg/kg/injection, schedule: Q04DX003 (ip), vehicle: saline) was 272 % of control and the T/C (dose: 3.0 mg/kg/injection, schedule: Q04DX003 (iv), vehicle: saline) was 168 % of control. The T/C (dose: 4.5 mg/kg/injection, schedule: Q04DX003 (ip), vehicle: saline) was 116 % of control and the T/C (dose: 4.5 mg/kg/injection, schedule: Q04DX003 (iv), vehicle: saline) was 150 % of control.

`CCCCCCNc1nc(NCCCCCC)c2[nH]c(NCCCCCC)nc2n1` was tested, and the T/C [1] was 123 % of control and the T/C [7] was 122 % of control.

In the case of `O=c1[nH]cnc2c1nnn2C1OC(CO)C(O)C1O` (stereo unspecified), the T/C (dose: 180.0 mg/kg/injection, schedule: Q04DX003 (ip), vehicle: suspension in saline) is reported as 123 % of control and the T/C (dose: 833.0 mg/kg/injection, schedule: Q04DX003 (ip), vehicle: suspension in saline) is reported as 153 % of control.

In the case of `NC(=S)c1ncn(C2OC(COC=O)C(OC=O)C2OC=O)c1NC=O` (stereo unspecified), the T/C [5] is reported as 109 % of control, the T/C [8] is reported as 172 % of control and the T/C [9] is reported as 188 % of control.

In the case of `O=C1CN(CCN2CC(=O)N(CN3CCOCC3)C(=O)C2)CC(=O)N1CN1CCOCC1`, the T/C (dose: 18.75 mg/kg/injection, schedule: Q04DX003 (ip), vehicle: saline with Tween-80) is reported as 98 % of control, the T/C [1] is reported as 120 % of control and the T/C (dose: 37.5 mg/kg/injection, schedule: Q04DX003 (ip), vehicle: water) is reported as 88 % of control. The T/C [2] was 108 % of control, the T/C (dose: 75.0 mg/kg/injection, schedule: Q04DX003 (ip), vehicle: water) was 102 % of control and the T/C (dose: 150.0 mg/kg/injection, schedule: Q04DX003 (ip), vehicle: water) was 101 % of control.

In the case of `CCC(c1ccc(O)cc1)C(CC)c1ccc(OCCN)cc1` (stereo unspecified), the T/C (dose: 62.5 mg/kg/injection, schedule: Q04DX003 (ip), vehicle: saline with Tween-80) is reported as 88 % of control, the T/C (dose: 125.0 mg/kg/injection, schedule: Q04DX003 (ip), vehicle: saline with Tween-80) is reported as 104 % of control and the T/C (dose: 250.0 mg/kg/injection, schedule: Q04DX003 (ip), vehicle: saline with Tween-80) is reported as 93 % of control. The T/C (dose: 500.0 mg/kg/injection, schedule: Q04DX003 (ip), vehicle: saline with Tween-80) was 92 % of control and the T/C (dose: 1000.0 mg/kg/injection, schedule: Q04DX003 (ip), vehicle: saline with Tween-80) was 93 % of control.

For `CCN(CC)c1ccc2[nH]c3c(C(N)=O)cc(=O)c(=O)c=3oc2c1`, the T/C [7] was 110 % of control and the T/C [3] was 96 % of control.

`C=Cc1cc(OC)c2c(c1)c(=O)oc1c2cc(OC)c2c(O)ccc(C3OC(C)C(O)C(C)(O)C3O)c21` (stereo unspecified) was tested, and the T/C (dose: 600.0 mg/kg/injection, schedule: Q04DX003 (ip), vehicle: DMSO) was 86 % of control.

In the case of `CO[C@@H]1C2=CC=CC=C[C@H]2n2c(=O)n(C)c(=O)n21`, the T/C (dose: 37.5 mg/kg/injection, schedule: Q04DX003 (ip), vehicle: other) is reported as 104 % of control, the T/C (dose: 75.0 mg/kg/injection, schedule: Q04DX003 (ip), vehicle: other) is reported as 105 % of control and the T/C (dose: 150.0 mg/kg/injection, schedule: Q04DX003 (ip), vehicle: other) is reported as 102 % of control.
